What was measured:
Type in all cases: biochemical
[1] = target: Porcine pancreatic elastase (Sus scrofa, UniProt P00772); experiment: In vitro anti-elastase activity
Procedure: The assay employed was based on methods from the literature. This assay was performed in 0.2 mM Tris-HCL buffer (pH 8.0). Porcine pancreatic elastase (PE-E.C.3.4.21.36) was dissolved to make a 3.33 mg/mL stock solution in sterile water. The substrate N-succinyl-Ala-Ala-Ala-p-nitroanilide (AAAPVN) was dissolved in buffer at 1.6 mM. The test extracts were incubated with the enzyme for 15 minutes before adding substrate to begin the reaction. The final reaction mixture (250 μL total volume) contained buffer, 0.8 mM AAAPVN,1 mg/mL PE and 25 mg test extract. EGCG (1 mg/mL) was used as a positive control. Negative controls were performed using water. Absorbance values between 381 and 402 nm (following pre-screen scans) were measured immediately following addition of the substrate and then continuous for 20 minutes. FIG. 6

[2] = system: Collagenase from Clostridium histolyticum; experiment: In vitro anti-collagenase activity (FALGPA substrate)
Procedure: The assay employed was based on spectrophotometric methods reported in the literature. The assay was performed in 50 mM Tricine buffer (pH 7.5 with 400 mM NaCl and 10 mM CaCl2). Collagenase from Clostridium histolyticum (ChC-[…]) was dissolved in buffer for use at an initial concentration of 0.8 units/mL according to the supplier's activity data. The synthetic substrate N-[3-(2-furyl)acryloyl]-Leu-Gly-Pro-Ala (FALGPA) was dissolved in Tricine buffer to 2 mM. […] The final reaction mixture (150 μL total volume) contained Tricine buffer, 0.8 mM FALGPA, 0.1 units ChC and 20-100 μg test extracts. Negative controls were performed with water. Absorbance at 335 nm was measured immediately after adding substrate and then continuous for 20 minutes. EGCG, 250 μM (0.114 mg/mL) was used as a positive control. FIG. 9

Mushroom tyrosinase = experiment: In vitro anti-tyrosinase activity (L-DOPA, dopachrome at 475 nm)
Procedure: Mushroom tyrosinase (Prod. No. T7755) and L-DOPA were purchased from Sigma Adrich. […] We also prepared positive controls of lmg/mL kojic acid solutions (with water), with enzyme. Twenty 20 μL of 0.85 mM L-DOPA solution as the substrate was added into every sample and blank. These assay mixtures were incubated at 25° C. for 10 min. The amount of dopachrome produced in the reaction mixture was measured at 475 nm.

Chain of Porcine pancreatic elastase (P00772 27-266): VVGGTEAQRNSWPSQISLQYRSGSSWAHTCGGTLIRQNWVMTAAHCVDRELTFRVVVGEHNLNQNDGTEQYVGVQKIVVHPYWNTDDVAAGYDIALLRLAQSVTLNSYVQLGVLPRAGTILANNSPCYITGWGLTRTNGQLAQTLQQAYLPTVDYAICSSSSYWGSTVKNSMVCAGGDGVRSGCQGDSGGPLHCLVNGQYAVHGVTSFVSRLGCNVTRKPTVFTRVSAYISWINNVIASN

SMILES	% inhibition of Elastase activity ([1]; 20 μg/ml)	% inhibition of Elastase activity ([1]; 40 μg/ml)	% inhibition of Elastase activity ([1]; 60 μg/ml)	% inhibition of Elastase activity ([1]; 80 μg/ml)	% inhibition of Elastase activity ([1]; 100 μg/ml)	% inhibition of Collagenase activity ([2]; 20 μg/ml)	% inhibition of Collagenase activity ([2]; 40 μg/ml)	% inhibition of Collagenase activity ([2]; 60 μg/ml)	% inhibition of Collagenase activity ([2]; 80 μg/ml)	% inhibition of Collagenase activity ([2]; 100 μg/ml)	% inhibition of tyrosinase activity (Mushroom tyrosinase; 20 μg/ml)	% inhibition of tyrosinase activity (Mushroom tyrosinase; 40 μg/ml)	% inhibition of tyrosinase activity (Mushroom tyrosinase; 60 μg/ml)	% inhibition of tyrosinase activity (Mushroom tyrosinase; 80 μg/ml)	% inhibition of tyrosinase activity (Mushroom tyrosinase; 100 μg/ml)
O=C(O[C@@H]1Cc2c(O)cc(O)cc2O[C@@H]1c1cc(O)c(O)c(O)c1)c1cc(O)c(O)c(O)c1 [EGCG, epigallocatechin gallate]	43.98%	54.36%	53.32%	60.37%	62.45%	8.30%	16.93%	25.83%	32.70%	41.52%					
O=c1cc(CO)occ1O [Kojic acid, kojic acid]											64.46%	77.66%	88.32%	91.37%	93.90%
